O=C1CCC(=O)O1
solubility (mole fraction)
Conditions	278.15 K	283.15 K	288.15 K	293.15 K	298.15 K	303.15 K
in acetone	0.0721	0.0863	0.103	0.121	0.143	0.166
in acetonitrile	0.114	0.121	0.129	0.137	0.146	0.156
in ethyl acetate	0.0485	0.0544	0.0611	0.0684	0.0771	0.0853
in isopropanol	0.0502	0.0562	0.0632	0.0705	0.0793	0.0889

Source: BigSolDB 2.1
